Experimental data published in patent US12227500B2, “Substituted pyrrolo[2,3-b]pyridines for suppressing toxic endoplasmic reticulum stress” (THE TRUSTEES OF COLUMBIA UNIVERSITY IN THE CITY OF NEW YORK, priority 2018, dated 2025).
Read-outs that look alike come from different tables or passages of the source.

Tests used:
HGK/MAP4K4 = HGK/MAP4K4 (Homo sapiens, UniProt O95819); assay: Radiolabeled ATP kinase assay (Reaction Biology Corp.), HGK; assay type: biochemical; design: purchased Reaction Biology Corp; conditions: 10 μM ATP, read-out: % Enzyme Activity (relative to DMSO controls), HGK/MAP4K4, Data 1; for remaining activity at 0.025 µM: [Cmpd] 0.025 μM; for remaining activity at 0.1 µM: [Cmpd] 0.1 μM
Method: (§1) Meanwhile, the same analogs were analyzed in a radiolabeled ATP assay (10 μM ATP; Reaction Biology Corp.) to compare the extent to which they could inhibit the activity of HGK, MLK1, or MLK3 in a cell-free environment (Table S3 and S4).

MLK3/MAP3K11 = molecular target: T1, MLK3/MAP3K11 (Homo sapiens, UniProt Q16584); assay: Radiolabeled ATP kinase assay (Reaction Biology Corp.), MLK3; assay type: biochemical; conditions: [Cmpd] 0.1 μM; 10 μM ATP
T1 construct: purchased Reaction Biology Corp
Method: as §1

MLK1/MAP3K9 = molecular target: T2, MLK1/MAP3K9 (Homo sapiens, UniProt P80192); assay: Radiolabeled ATP kinase assay (Reaction Biology Corp.), MLK1; assay type: biochemical; conditions: [Cmpd] 0.1 μM, 10 μM ATP
T2 construct: purchased Reaction Biology Corp
Method: as §1

[1] = test system: human ES motor neurons carrying the ALS-causing SOD1^A4V mutation; assay: cells; assay type: cell-based; conditions: for EC50 / viability at 1 µM / Emax: Homo sapiens, Neuron, 72 h; for EC50 / Emax: CPA 33 μM; for EC50: read-out: EC50; for viability at 1 µM: CPA (33 μM) + compound (1 μM), read-out: Motor Neuron Survival, % untreated; for Emax: read-out: Emax (MN survival % untreated)
Method: Next, survival assays were performed with all the analogs at once to generate a low-variability dataset. All compounds were evaluated at concentrations ranging from 0.1-3.0 μM (five-point dilution) in three technical replicates and two biological replicates.

[2] = read-out: % Enzyme Activity Remaining (relative to DMSO controls), MLK1/MAP3K9, Data 1
[3] = read-out: % Enzyme Activity Remaining (relative to DMSO controls), MLK1/MAP3K9, Data 2

T2 sequence (P80192 whole entry): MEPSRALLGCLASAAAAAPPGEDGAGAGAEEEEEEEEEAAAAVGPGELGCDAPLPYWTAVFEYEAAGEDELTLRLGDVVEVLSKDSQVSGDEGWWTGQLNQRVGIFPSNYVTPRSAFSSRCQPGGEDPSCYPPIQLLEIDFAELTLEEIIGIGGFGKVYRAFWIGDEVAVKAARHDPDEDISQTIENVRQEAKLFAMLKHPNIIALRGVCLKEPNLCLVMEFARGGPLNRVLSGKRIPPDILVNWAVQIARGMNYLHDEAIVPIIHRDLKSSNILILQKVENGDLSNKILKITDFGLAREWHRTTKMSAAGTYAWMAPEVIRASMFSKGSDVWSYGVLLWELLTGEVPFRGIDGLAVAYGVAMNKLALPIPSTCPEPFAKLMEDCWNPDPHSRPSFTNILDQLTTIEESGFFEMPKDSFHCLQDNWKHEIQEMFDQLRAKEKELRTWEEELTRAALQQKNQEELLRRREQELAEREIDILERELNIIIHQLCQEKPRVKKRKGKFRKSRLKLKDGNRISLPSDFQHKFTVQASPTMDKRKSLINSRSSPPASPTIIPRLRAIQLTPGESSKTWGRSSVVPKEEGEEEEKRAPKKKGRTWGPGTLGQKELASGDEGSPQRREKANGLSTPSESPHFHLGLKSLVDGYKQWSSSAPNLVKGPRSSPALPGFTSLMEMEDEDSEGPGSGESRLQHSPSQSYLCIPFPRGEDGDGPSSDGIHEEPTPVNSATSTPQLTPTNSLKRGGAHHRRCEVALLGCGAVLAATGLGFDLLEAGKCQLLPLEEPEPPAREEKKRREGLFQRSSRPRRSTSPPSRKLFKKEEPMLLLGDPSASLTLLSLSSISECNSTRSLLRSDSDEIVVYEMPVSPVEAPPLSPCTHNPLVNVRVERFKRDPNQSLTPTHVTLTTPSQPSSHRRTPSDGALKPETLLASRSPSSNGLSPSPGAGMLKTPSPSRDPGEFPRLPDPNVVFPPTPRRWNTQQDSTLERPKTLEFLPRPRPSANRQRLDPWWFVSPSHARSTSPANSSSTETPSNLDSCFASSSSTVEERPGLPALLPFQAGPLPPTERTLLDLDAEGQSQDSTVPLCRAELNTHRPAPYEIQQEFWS
T1 sequence (Q16584 whole entry): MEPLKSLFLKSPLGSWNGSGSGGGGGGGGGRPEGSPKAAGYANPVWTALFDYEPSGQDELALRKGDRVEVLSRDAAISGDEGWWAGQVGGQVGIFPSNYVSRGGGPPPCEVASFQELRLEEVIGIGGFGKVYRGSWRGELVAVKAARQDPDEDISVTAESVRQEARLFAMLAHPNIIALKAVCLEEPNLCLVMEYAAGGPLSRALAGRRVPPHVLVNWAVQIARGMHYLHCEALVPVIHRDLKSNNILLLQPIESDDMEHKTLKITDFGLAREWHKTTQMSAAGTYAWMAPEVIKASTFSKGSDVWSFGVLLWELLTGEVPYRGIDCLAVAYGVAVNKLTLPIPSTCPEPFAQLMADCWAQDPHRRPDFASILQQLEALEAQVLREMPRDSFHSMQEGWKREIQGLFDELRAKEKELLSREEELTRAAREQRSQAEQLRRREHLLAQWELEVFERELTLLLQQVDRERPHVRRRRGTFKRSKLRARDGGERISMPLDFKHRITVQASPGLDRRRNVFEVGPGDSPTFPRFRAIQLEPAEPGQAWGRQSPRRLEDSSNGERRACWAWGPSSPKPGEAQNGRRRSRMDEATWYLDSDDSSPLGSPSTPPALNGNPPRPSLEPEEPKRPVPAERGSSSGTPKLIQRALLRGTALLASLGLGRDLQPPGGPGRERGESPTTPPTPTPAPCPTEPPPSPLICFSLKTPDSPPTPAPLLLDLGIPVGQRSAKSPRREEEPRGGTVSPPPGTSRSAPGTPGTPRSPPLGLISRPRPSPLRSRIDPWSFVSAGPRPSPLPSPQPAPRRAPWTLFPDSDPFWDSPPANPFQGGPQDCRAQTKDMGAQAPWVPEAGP
HGK/MAP4K4, sequence (O95819 whole entry): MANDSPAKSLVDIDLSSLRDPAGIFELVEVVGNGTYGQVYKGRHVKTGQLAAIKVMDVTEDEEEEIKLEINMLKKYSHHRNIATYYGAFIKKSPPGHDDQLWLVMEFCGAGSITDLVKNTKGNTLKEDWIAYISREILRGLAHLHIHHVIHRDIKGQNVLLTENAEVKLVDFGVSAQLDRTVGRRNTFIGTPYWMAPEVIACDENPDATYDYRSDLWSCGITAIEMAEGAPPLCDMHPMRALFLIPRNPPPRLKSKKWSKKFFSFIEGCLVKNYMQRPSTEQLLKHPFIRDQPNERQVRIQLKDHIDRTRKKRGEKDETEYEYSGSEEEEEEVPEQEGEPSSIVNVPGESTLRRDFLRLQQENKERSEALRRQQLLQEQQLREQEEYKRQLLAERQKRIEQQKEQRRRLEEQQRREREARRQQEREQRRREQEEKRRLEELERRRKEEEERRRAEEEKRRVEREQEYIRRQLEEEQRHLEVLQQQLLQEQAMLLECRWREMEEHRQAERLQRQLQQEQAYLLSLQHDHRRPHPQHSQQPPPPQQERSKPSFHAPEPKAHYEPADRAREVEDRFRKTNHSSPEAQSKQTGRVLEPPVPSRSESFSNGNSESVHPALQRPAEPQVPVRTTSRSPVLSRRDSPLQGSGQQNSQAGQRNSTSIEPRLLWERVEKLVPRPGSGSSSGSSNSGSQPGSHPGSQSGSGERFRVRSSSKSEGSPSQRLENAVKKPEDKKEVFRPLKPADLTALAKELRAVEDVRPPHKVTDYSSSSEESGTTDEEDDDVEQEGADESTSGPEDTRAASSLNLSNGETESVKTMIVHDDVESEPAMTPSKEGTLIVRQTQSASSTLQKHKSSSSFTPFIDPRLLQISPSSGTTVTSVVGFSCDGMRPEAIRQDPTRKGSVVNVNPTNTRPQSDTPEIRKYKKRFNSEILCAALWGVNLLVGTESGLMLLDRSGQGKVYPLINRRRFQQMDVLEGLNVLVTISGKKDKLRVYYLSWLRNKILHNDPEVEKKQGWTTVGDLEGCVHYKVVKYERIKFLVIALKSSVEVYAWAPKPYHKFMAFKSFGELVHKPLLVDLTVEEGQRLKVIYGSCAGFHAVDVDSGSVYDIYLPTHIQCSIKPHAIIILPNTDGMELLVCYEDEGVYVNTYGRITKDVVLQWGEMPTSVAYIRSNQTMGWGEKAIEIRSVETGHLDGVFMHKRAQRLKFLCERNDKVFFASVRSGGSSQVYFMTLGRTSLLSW

Row | Compound | remaining activity at 0.025 µM (HGK/MAP4K4) | remaining activity at 0.1 µM (HGK/MAP4K4) | % Enzyme Activity Remaining (relative to DMSO controls), MLK3/MAP3K11, Data 1 (MLK3/MAP3K11) | % Enzyme Activity Remaining (relative to DMSO controls), MLK3/MAP3K11, Data 2 (MLK3/MAP3K11) | remaining activity at 0.1 µM (MLK1/MAP3K9; [2]) | remaining activity at 0.1 µM (MLK1/MAP3K9; [3]) | rescue of MNs in the CPA survival assay ([1]; FIG. 9) | EC50 [1] | viability at 1 µM [1] | Emax [1]
1 | Cc1ccc(S(=O)(=O)n2cc(-c3ccc4[nH]ccc4c3)c3cc(-c4ccc(C=O)cc4)cnc32)cc1 [Compound 11, 4-(3-(1H-Indol-5-yl)-1-tosyl-1H-pyrrolo[2,3-b]pyridin-5-yl)benzaldehyde] | 102% | 85.5% | 93.68% | 88.60% | 95% | 95.5% | – | – | – | –
2 | NG-25 [reference compound] | – | – | – | – | – | – | unable to rescue MNs | – | – | –
3 | COc1cc(-c2c[nH]c3ncc(-c4ccc(CN5CCN(C)CC5)cc4)cc23)cc(OC)c1OC [Compound 7ap, 5-(4-((4-Methylpiperazin-1-yl)methyl)phenyl)-3-(3,4,5-trimethoxyphenyl)-1H-pyrrolo[2,3-b]pyridine] | 35.6% | 6.76% | 70.05% | 68.91% | 54.2% | 52.8% | – | – | – | –
4 | CN1C2CCC1CN(Cc1ccc(-c3cnc4[nH]cc(-c5cccc6[nH]ncc56)c4c3)cc1)C2 [Compound 12d, 4-(5-(4-((8-Methyl-3,8-diazabicyclo[3.2.1]octan-3-yl)methyl)phenyl)-1H-pyrrolo[2,3-b]pyridin-3-yl)-1H-indazole] | 3.17% | -0.29% | – | – | – | – | – | 301 nM | 109% | 143%
5 | CC(C)Oc1ccc(-c2c[nH]c3ncc(-c4ccc(CN5CCN(C)CC5)cc4)cc23)cc1 [Compound 7q, 3-(4-Isopropoxyphenyl)-5-(4-((4-methylpiperazin-1-yl)methyl)phenyl)-1H-pyrrolo[2,3-b]pyridine] | – | – | 91.91% | 89.69% | 94.1% | 95.4% | – | 740 nM | 20.6% | 21.5%
6 | CC(C)(C)N1CCN(Cc2ccc(-c3cnc4[nH]cc(-c5cccc(F)c5)c4c3)cc2)CC1 [Compound 12j, 5-(4-((4-(tert-Butyl)piperazin-1-yl)methyl)phenyl)-3-(3-fluorophenyl)-1H-pyrrolo[2,3-b]pyridine] | – | – | – | – | – | – | – | 50 nM | – | 98.5%
7 | CN1CC2CCC(C1)N2Cc1ccc(-c2cnc3[nH]cc(-c4ccc5[nH]ccc5c4)c3c2)cc1 [Compound 12c, 3-(1H-Indol-5-yl)-5-(4-((3-methyl-3,8-diazabicyclo[3.2.1]octan-8-yl)methyl)phenyl)-1H-pyrrolo[2,3-b]pyridine] | 92.7% | 84.2% | – | – | – | – | – | 694 nM | 43.7% | 43.7%
8 | CN1CCN(Cc2ccc(-c3cnc4[nH]cc(-c5cc6ccccc6s5)c4c3)cc2)CC1 [Compound 7g, 3-(Benzo[b]thiophen-2-yl)-5-(4-((4-methylpiperazin-1-yl)methyl)phenyl)-1H-pyrrolo[2,3-b]pyridine] | – | – | 45.87% | 42.66% | 55.9% | 58.5% | – | – | – | –
9 | Fc1cccc(-c2c[nH]c3ncc(-c4ccc(CN5CCC(N6CCCCC6)CC5)cc4)cc23)c1 [Compound 12g, 5-(4-([1,4′-Bipiperidin]-1′-ylmethyl)phenyl)-3-(3-fluorophenyl)-1H-pyrrolo[2,3-b]pyridine] | – | – | – | – | – | – | – | 50 nM | – | 89.3%
10 | CN1C2CCC1CN(Cc1ccc(-c3cnc4[nH]cc(-c5ccc6[nH]ccc6c5)c4c3)cc1)C2 [Compound 12b, 3-(1H-Indol-5-yl)-5-(4-((8-methyl-3,8-diazabicyclo[3.2.1]octan-3-yl)methyl)phenyl)-1H-pyrrolo[2,3-b]pyridine] | 69% | 34.5% | – | – | – | – | – | 1960 nM | 25.2% | 72.6%
